Experimental data: patent publication US8153557B2, “Agriculturally useful compositions” (priority 2006, dated 2012)

Columns and labels:
[1] = Precipitation of Cloquintocet-mexyl hydrate from A200, BL or A200+BL solutions after addition of water (Example Two); type: physicochemical; set-up: key to Cloquintocet-mexyl hydrate precipitation: “P” means that Cloquintocet-mexyl hydrate precipitated from the mixture.; “S” means that Cloquintocet-mexyl hydrate did not precipitated from the mixture; details: about 10 weight percent water added, 4° C.
Protocol: CQC was dissolved into A200, BL, or a mixture of A200+BL. Thereafter, about 10 weight percent water was added to each sample based on the weight of the sample (A200+BL+CQC). Each sample was prepared at 4° C.

[2] = Precipitation of Cloquintocet-mexyl hydrate in emulsified concentrate (EW) of Example One; type: physicochemical; details: EW of Table E1: Aromatic 200 15.3, n-butyl lactate 15.3, ATLOX 4914 1.4, Cloquintocet-mexyl 4.2, ATLAS G-5000 2.2, water 61.6 weight percent
Protocol: The Following Items where Mix Together (See Table E1). [table] The Cloquintocet-mexyl was dissolved into a mixture of Aromatic 200 and n-butyl lactate. The emulsifiers were then mixed into the mixture. Finally, water was added and the mixture was turned into a emulsified concentrate (EW) by mechanical stirring. Precipitation of Cloquintocet-mexyl hydrate was not observed.

SMILES: CCCCCC(C)OC(=O)COc1ccc(Cl)c2cccnc12 (stereo not shown) [CQC, Cloquintocet-mexyl]
- CQC content kept in solution when mixed with water ([1]; 50/50 mixture of A200 and BL): up to 14 weight percent
- CQC content at which Cloquintocet-mexyl hydrate is kept in solution when mixed with water ([1]; A200(100%)): less than 7 weight percent
- CQC content at which Cloquintocet-mexyl hydrate is kept in solution when mixed with water ([1]; BL(100%)): less than 7 weight percent
- Cloquintocet-mexyl hydrate precipitation ([1]; CQC 3 wt %, BL 100%): S
- Cloquintocet-mexyl hydrate precipitation ([1]; CQC 4 wt %, A200 100%): S
- Cloquintocet-mexyl hydrate precipitation ([1]; CQC 5 wt %, BL 100%): S
- Cloquintocet-mexyl hydrate precipitation ([1]; CQC 6 wt %, A200 100%): S
- Cloquintocet-mexyl hydrate precipitation ([1]; CQC 7 wt %, BL 100%): P
- Cloquintocet-mexyl hydrate precipitation ([1]; CQC 8 wt %, A200 100%): P
- Cloquintocet-mexyl hydrate precipitation ([1]; CQC 9 wt %, BL 100%): P
- Cloquintocet-mexyl hydrate precipitation ([1]; CQC 10 wt %, A200 100%): P
- Cloquintocet-mexyl hydrate precipitation ([1]; CQC 11 wt %, BL 100%): P
- Cloquintocet-mexyl hydrate precipitation ([1]; CQC 12 wt %, A200 (12%) + BL (88%)): P
- Cloquintocet-mexyl hydrate precipitation ([1]; CQC 12 wt %, A200 (50%) + BL (50%)): S
- Cloquintocet-mexyl hydrate precipitation ([1]; CQC 12 wt %, A200 (88%) + BL (12%)): P
- Cloquintocet-mexyl hydrate precipitation ([1]; CQC 13 wt %, BL 100%): P
- Cloquintocet-mexyl hydrate precipitation ([1]; CQC 14 wt %, A200 (12%) + BL (88%)): P
- Cloquintocet-mexyl hydrate precipitation ([1]; CQC 14 wt %, A200 (50%) + BL (50%)): S
- Cloquintocet-mexyl hydrate precipitation ([1]; CQC 14 wt %, A200 (88%) + BL (12%)): P
- Cloquintocet-mexyl hydrate precipitation ([1]; CQC 15.5 wt %, A200 100%): P
- Cloquintocet-mexyl hydrate precipitation ([1]; CQC 15.5 wt %, A200 (12%) + BL (88%)): P
- Cloquintocet-mexyl hydrate precipitation ([1]; CQC 15.5 wt %, A200 (50%) + BL (50%)): P
- Cloquintocet-mexyl hydrate precipitation ([1]; CQC 15.5 wt %, A200 (88%) + BL (12%)): P
- Cloquintocet-mexyl hydrate precipitation ([1]; CQC 15.5 wt %, BL 100%): P
- Precipitation of Cloquintocet-mexyl hydrate [2]: not observed
